Results: the NIST ThermoML archive (doi:10.1016/j.fluid.2017.06.024)

Settings: Liquid; for speed of sound: Frequency=3 MHz, Pulse-echo method; for mass density: Vibrating tube method

CC(C)OC(C)C [diisopropyl ether]
Settings | mass density, 333.15 K [kg/m3] | mass density, 343.15 K [kg/m3] | mass density, 353.15 K [kg/m3] | mass density, 363.15 K [kg/m3] | mass density, 373.15 K [kg/m3] | mass density, 383.15 K [kg/m3] | mass density, 393.15 K [kg/m3] | speed of sound, 333.15 K [m/s] | speed of sound, 343.15 K [m/s] | speed of sound, 353.15 K [m/s]
10000 kPa | – | 686 | 676.2 | 666.1 | 655.9 | 645.3 | 634.8 | – | – | –
20000 kPa | – | 700 | 691.2 | 682.3 | 673.3 | 664 | 654.9 | – | 984.53 | 953.14
30000 kPa | – | 711.8 | 703.7 | 695.6 | 687.4 | 679 | 670.7 | – | – | –
40000 kPa | – | 722.2 | 714.6 | 707 | 699.4 | 691.8 | 684 | – | 1117.8 | 1090.7
50000 kPa | – | 731.4 | 724.2 | 717.1 | 709.9 | 702.8 | 695.4 | – | – | –
60000 kPa | – | 739.7 | 733 | 726.1 | 719.3 | 712.5 | 705.6 | – | 1226.4 | 1200.4
70000 kPa | – | 747.3 | 740.9 | 734.4 | 728 | 721.4 | 714.8 | – | – | –
80000 kPa | – | 754.4 | 748.2 | 742 | 735.7 | 729.5 | 722.9 | – | 1318.7 | 1294.6
90000 kPa | – | 761 | 755.1 | 749 | 743.1 | 737 | 730.8 | – | – | –
100000 kPa | 773.8 | 767.2 | 761.4 | 755.5 | 749.8 | 743.9 | 738 | 1423.5 | 1400.8 | 1378.4
110000 kPa | 779.4 | 773.2 | 767.3 | 761.7 | 756.2 | 750.4 | 744.6 | – | – | –
120000 kPa | 784.8 | 778.6 | 773 | 767.5 | 762.2 | 756.6 | 750.9 | – | – | –
130000 kPa | 789.9 | 784 | 778.4 | 773 | 767.8 | 762.4 | 756.8 | – | – | –
140000 kPa | 794.7 | 788.9 | 783.5 | 778.3 | 773.1 | 767.9 | 762.3 | – | – | –
